Measured values taken from paper PMC10072319 (Bioorganic & medicinal chemistry letters, 2023).

Legend:
T. b. brucei Lister 427 = assay type: cell-based, Trypanosoma brucei brucei; details: for activity against T. b. brucei, in words: first pass screen at 4 μM
HEK293 cells = assay: Resazurin cell viability; details: read-out: HEK293 CC50, 48 h, mean ± SD
T. b. brucei parasites = assay: Time-kill experiment, parasites quantified by hemocytometer cell counting; assay type: cell-based, Trypanosoma brucei brucei; details: for time required to kill the parasites: all concentrations tested (46: 1, 2 and 4 μM; pentamidine: 0.5, 1 and 2 μM)
[1] = tested on: T. b. brucei trypanosomes; assay: Washout experiment; assay type: cell-based, Trypanosoma brucei brucei; details: 1, 2 and 4 μM for 6, 4 and 2 h, washed three times, monitored a further 48 h

Compound	activity against T. b. brucei, in words (T. b. brucei Lister 427)	further results
COc1ccc(/C=C/C(=O)/C=C/c2ccccc2)cc1 [Compound 35]	no activity	–
O=C(/C=C/c1ccccc1)/C=C/c1ccccc1 [Compound 3, dibenzylideneacetone]	–	EC50 (T. b. brucei Lister 427; read-out: T. b. brucei EC50, bloodstream forms, Lister 427, SYBR green, 72 h, mean ± SD): 0.8 ± 0.2 µM; CC50 (HEK293 cells): 8.33 ± 0.48 µM
O=C(/C=C/c1ccccc1Cl)/C=C/c1ccccc1Cl [Compound 19]	sub-micromolar activity	selectivity index (SI = HEK293 CC50/T. b. brucei EC50) (T. b. brucei Lister 427): above 10
COc1cc(/C=C/C(=O)/C=C/c2cc(OC)c(OC)c(OC)c2)cc(OC)c1OC [Compound 13]	sub-micromolar activity	–
O=C(/C=C/c1ccc(Cl)c(Cl)c1)CC(=O)/C=C/c1ccc(Cl)c(Cl)c1 [Compound 12]	inactive	–
COc1cccc(/C=C/C(=O)/C=C/c2cccc(OC)c2)c1 [Compound 28]	inactive	–
COc1cc(/C=C2\CCC/C(=C\c3cc(OC)cc(OC)c3)C2=O)cc(OC)c1 [Compound 34]	inactive	–
O=C(/C=C/c1ccccc1)CC(=O)/C=C/c1ccccc1 [Compound 5]	no measurable activity	–
COc1ccc(/C=C/C(=O)CC(=O)/C=C/c2ccc(OC)c(OC)c2)cc1OC [Compound 8]	inactive	–
O=C(/C=C/c1ccccc1)/C=C/c1cccc([N+](=O)[O-])c1 [Compound 46]	–	time required to kill the parasites (T. b. brucei parasites): less than 24 h; time required to kill the parasite (T. b. brucei parasites; at 2 and 4 μM): less than 6 h; trypanocidal vs trypanostatic activity after washout [1]: trypanocidal rather than trypanostatic
CN(C)c1ccc(/C=C/C(=O)/C=C/c2ccccc2)cc1 [Compound 40]	no activity	–
COc1cccc(/C=C/C(=O)CC(=O)/C=C/c2cccc(OC)c2)c1 [Compound 7]	inactive	–
N=C(N)c1ccc(OCCCCCOc2ccc(C(=N)N)cc2)cc1 [Pentamidine, reference compound]	–	time required to kill the parasites (T. b. brucei parasites): > 30 h
COc1ccc(/C=C/C(=O)/C=C/c2ccc(OC)c(OC)c2)cc1OC [Compound 16]	sub-micromolar activity	selectivity index (SI = HEK293 CC50/T. b. brucei EC50) (T. b. brucei Lister 427): above 10
COc1ccc(/C=C/C(=O)/C=C/c2ccc(OC)cc2)cc1 [Compound 29]	inactive	–
O=C(/C=C/c1ccc(C(F)(F)F)cc1)CC(=O)/C=C/c1ccc(C(F)(F)F)cc1 [Compound 11]	inactive	–
